Assay results reported in publication PMC6212438, “Vapor detection and discrimination with a panel of odorant receptors” (Nature Communications, 2018).

Molecular target: T1, Olfr1484 (Mus musculus, UniProt Q8VEU6)
T1 construct: gene Or5b122; full ORF with N-terminal Rho-tag (first 20 residues of human rhodopsin), Hana3A cells, co-expressed RTP1S
T1 sequence (Q8VEU6 1-315): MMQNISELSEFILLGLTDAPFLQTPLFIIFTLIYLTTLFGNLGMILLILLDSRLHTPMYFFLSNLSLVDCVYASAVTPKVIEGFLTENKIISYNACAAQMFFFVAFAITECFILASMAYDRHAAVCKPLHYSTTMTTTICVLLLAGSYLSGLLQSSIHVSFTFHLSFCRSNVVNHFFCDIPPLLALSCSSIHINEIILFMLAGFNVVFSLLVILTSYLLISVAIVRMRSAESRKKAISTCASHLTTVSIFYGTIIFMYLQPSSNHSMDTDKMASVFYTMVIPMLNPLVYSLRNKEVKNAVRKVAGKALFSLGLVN
Assay: GloSensor cAMP luminescence in Hana3A cells
Format: cell-based
Details: agonist; vapor-phase stimulation, odorant diluted in mineral oil

Q: Which “GloSensor cAMP luminescence in Hana3A cells” value does the source give for `O=C1CCCCC1` [cyclohexanone] here?
A: Olfr1484 to cyclohexanone (CH)
